{"source": "patent US10406217B2", "about": "“Antifugetactic agents for the treatment of cancers” (The General Hospital Corporation, priority 2004, dated 2019)", "molecular_target": "T1, CXCR2 (Homo sapiens, UniProt P25025)", "T1 construct": "endogenous in cells; host or cells: neutrophils (isolated primary cells)", "T1 sequence (P25025 1-360)": "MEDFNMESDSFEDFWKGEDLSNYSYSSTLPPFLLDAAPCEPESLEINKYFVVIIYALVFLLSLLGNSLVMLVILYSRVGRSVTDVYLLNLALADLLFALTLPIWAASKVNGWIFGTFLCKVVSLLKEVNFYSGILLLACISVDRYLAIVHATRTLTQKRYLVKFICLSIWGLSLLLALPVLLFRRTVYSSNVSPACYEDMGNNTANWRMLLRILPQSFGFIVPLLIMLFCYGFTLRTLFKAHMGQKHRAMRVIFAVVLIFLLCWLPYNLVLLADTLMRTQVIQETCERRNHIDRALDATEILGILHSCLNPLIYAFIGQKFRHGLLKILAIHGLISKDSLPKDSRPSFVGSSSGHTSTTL", "assay": "Sequential calcium flux in neutrophils to IL-8 after SB225002 pretreatment", "type": "cell-based", "details": "1 pM SB225002; IL-8 1.2 μM and 1.2 μM or 600 nM and 1.2 μM; p<0.05", "description": "Calcium flux in neutrophils in response to IL-8 was measured as previously described (Mahon M. J., et al. 2004 J Biol Chem 279:23550-8). Briefly, isolated cells (˜10^7/ml) were transferred into a balanced salt solution (127 mM NaCl, 3.8 mM KCl, 1.2 mM KH2PO4, 1.2 mM CaCl2, 0.9 mM MgCl2, 5 mM glucose, and 10 mM HEPES, pH 7.4), incubated for 45 min at room temperature with 1.25 μM Fura-2 acetoxymethyl ester (Molecular Probes, Eugene, Oreg.), washed with the balanced salt solution, and unloaded for 15 min at room temperature. […] Calcium flux in response to indicated concentrations of IL-8 (Akahoshi T., et al. 1994 Lymphokine Cytokine Res 13:113-6) was measured by fluorescence of cells excited at 340 and 380 nm using a PTI Deltascan dual-wavelength fluorimeter (Photon Technologies Incorporated, Lawrenceville, N.J.), observed through a Nikon Diaphot 200 microscope (Melville, N.Y.) and Sensys charge-coupled device camera (Photometrics, Ltd., Tucson, Ariz.), and analyzed using the Poenie-Tsien ratio with Imagemaster 2 software (Photon Technologies Incorporated). Signaling responses to IL-8 at designated concentrations were calibrated against maximal calcium flux as determined by treatment with 5 μM ionomycin (Sigma). CXCR2 expression on neutrophils pre- and post-exposure to 120 nM, 1.2 μM and 2.4 μM IL-8 was determined using PE-labelled anti-CXCR2 IgGl antibody (R & D systems). […]", "data": [{"smiles": "O=C(Nc1ccc([N+](=O)[O-])cc1O)Nc1ccccc1Br", "note": "[SB225002]", "values": [{"measurement": "sequential peaks of calcium flux following IL-8 stimulation", "value": "significantly reduced"}]}]}
